Measured values as given in patent publication US8530467B2, “Benzoimidazole compounds and uses thereof” (Neomed Institute, priority 2009, dated 2013).

Columns and labels:
Assay type in all cases: cell-based
[1] = target: T1, hP2X3 (human Purinergic P2X receptors subtype 3) (Homo sapiens, UniProt P56373); test: Fluo-4 calcium mobilization assay, α,β methylene-ATP as agonist (Method 2); conditions: RLE cells stably expressing hP2X3; α,β methylene-ATP instead of ATP; read-out: Human P2X3 IC50 (μM) Method 2
T1 construct: expressed in transfected cells
T1 sequence (P56373 1-397): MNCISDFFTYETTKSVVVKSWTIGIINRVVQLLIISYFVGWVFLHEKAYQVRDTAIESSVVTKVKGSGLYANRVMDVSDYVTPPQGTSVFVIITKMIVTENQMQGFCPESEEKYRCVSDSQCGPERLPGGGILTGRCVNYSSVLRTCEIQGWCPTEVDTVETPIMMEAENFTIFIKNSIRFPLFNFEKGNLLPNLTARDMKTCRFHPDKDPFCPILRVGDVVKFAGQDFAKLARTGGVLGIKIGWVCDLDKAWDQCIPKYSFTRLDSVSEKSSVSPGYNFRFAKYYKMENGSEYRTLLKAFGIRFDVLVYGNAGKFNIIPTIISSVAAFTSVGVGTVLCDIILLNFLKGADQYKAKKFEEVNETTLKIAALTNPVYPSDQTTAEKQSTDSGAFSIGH
Protocol: (§1) The antagonist properties of compounds in the present invention were assayed as inhibitors of intracellular calcium increase induced by activation of hP2X3 (human Purinergic P2X receptors subtype 3, accession number AB016608 for clone A and accession number NM_002559 for clone B), expressed in RLE cells (rat liver […], ATCC. The RLE/hP2X3 cells were grown in William's medium 1× (Gibco, 12551-032), supplemented with 10% Fetal bovine serum (Wisent, 090850), 2 mM L-Glutamine (Wisent, 609-065-EL), and 600 μg/mL Geneticin G-418 (Wisent, 61234) in a humidified incubator (5% CO2 and 37° C.).
In one assay, Fluo-4 assay on FDSS7000 (Hamamatsu) was performed using cryopreserved RLE cells stably expressing hP2X3 plated in 384 well plates, 24 hr before the experiment at a density appropriate for obtaining the desired final confluence. After processing the cell plates with Fluo-4 and performing a subsequent incubation followed by washing steps, a double addition was carried out. The first addition included the test compounds diluted in HBSS buffer containing 2 mM CaCl2 preincubated for 20 min before a second addition. […] Calcium mobilization was measured with the FDSS7000 over a time lapse of 3 min, and fluorescent counts were exported for analysis. […] Hill coefficients and % inhibitions can also be determined. […]

[2] = target: T1, hP2X3 (human Purinergic P2X receptors subtype 3); test: Fluo-4 calcium mobilization assay on FDSS7000, ATP as agonist (Method 1); conditions: RLE cells stably expressing hP2X3; 2 uM ATP; 20 min preincubation; read-out: Human P2X3 IC50 (μM) Method 1
Protocol: as §1
In one assay, Fluo-4 assay on FDSS7000 (Hamamatsu) was performed using cryopreserved RLE cells stably expressing hP2X3 plated in 384 well plates, 24 hr before the experiment at a density appropriate for obtaining the desired final confluence. After processing the cell plates with Fluo-4 and performing a subsequent incubation followed by washing steps, a double addition was carried out. The first addition included the test compounds diluted in HBSS buffer containing 2 mM CaCl2 preincubated for 20 min before a second addition. The second addition included 2 uM of ATP. Calcium mobilization was measured with the FDSS7000 over a time lapse of 3 min, and fluorescent counts were exported for analysis. […] Hill coefficients and % inhibitions can also be determined.

[3] = target: T1, hP2X3 (human Purinergic P2X receptors subtype 3); test: FLIPR FLUO-4 AM calcium assay, α,β-methylene-ATP as agonist (Method 3); conditions: hP2X3-expressing RLE cells, 500 nM α,β-methylene-ATP, read-out: Human P2X3 IC50 (μM) Method 3
Protocol: as §1
In a third assay, hP2X3-expressing cells were maintained in culture and the day before the experiment, the cells were plated in 384-black polylysine coated plates (Becton/Dickinson, 356663) at 8000 cells/well in 50 μL/well in William's medium without Geneticin, and then placed in an incubator for 24 hr. On the day of the experiment, the cells and test compounds were prepared as follows. […] Experiments were initiated by measuring a baseline fluorescence reading for 10 sec, followed by adding 12.5 μL of compounds and data sampling for a total 280 seconds. […] During entire experiment, fluorescence emission was read by the FLIPR on board CCD camera using filter with emission wavelength of 520-545 nm. […] Hill coefficients and % inhibitions can also be determined.

IC50 [1]	IC50 [2]	IC50 [3]	SMILES
0.014 µM	0.007 µM	0.016 µM	CNC(=O)c1cc(F)c(-c2nc3cc(C)ccc3n2C[C@H]2CN(C(=O)OC)CCO2)c(F)c1 [Example 3, (S)-methyl 2-((2-(2,6-difluoro-4-(methylcarbamoyl)phenyl)-5-methyl-1H-benzo[d]imidazol-1-yl)methyl)morpholine-4-carboxylate]
–	–	0.016 µM	CNC(=O)c1cc(F)c(-c2nc3cc(C)ccc3n2C[C@@H]2CN(C(=O)OC)CCO2)c(F)c1 [Example 5, (R)-methyl 2-((2-(2,6-difluoro-4-(methylcarbamoyl)phenyl)-5-methyl-1H-benzo[d]imidazol-1-yl)methyl)morpholine-4-carboxylate]
